Source: patent US8877800B2, “Kappa-opiate agonists for the treatment of diarrhea-predominant irritable bowel syndrome” (Tioga Pharmaceuticals, Inc., priority 2007, dated 2014)

Tests used:
[1] = molecular target: delta opiate receptor (Homo sapiens, UniProt P41143); test: selectivity: IC50 at delta opiate receptor relative to kappa; assay type: binding; conditions: ratio kappa:mu:delta
[2] = tested on: patients with IBS; test: Example 1: randomized, double-blind, placebo controlled 4-week on-demand asimadoline study in participants with IBS; conditions: for Δ Pain intensity (mean ± SE): VAS, 2 hours after first dose
[3] = tested on: gastric and colon distention; conditions: animal models; cited from earlier work
[4] = molecular target: mu opiate receptor (Homo sapiens, UniProt P35372); test: selectivity: IC50 at mu opiate receptor relative to kappa; assay type: binding; conditions: ratio kappa:mu:delta
[5] = moisture, heat, aerial oxygen, light; cited from earlier work
[6] = cited from earlier work
[7] = tested on: IBS-D, IBS-C and IBS-A patients; test: Example 2: 12-week randomized, double-blind, dose-ranging, placebo-controlled fixed-dose asimadoline study in IBS; assay type: in vivo, human; conditions: for urgency: all three months; for improvement over placebo in percent number of months with adequate relief / percent number of months with adequate relief of IBS pain or discomfort: all IBS subjects with moderate or severe pain
Protocol: Diarrhea-predominant (IBS-D), constipation-predominant (IBS-C), and alternating IBS (IBS-A) patients were recruited from 120 sites in the United States. Patients underwent a two week screening period to ensure adequate symptoms and compliance with the interactive voice response system (IVRS) data collection system, followed by twelve weeks of treatment and a four week follow-up period. Patients received identical appearing placebo, 0.15 mg, 0.5 mg or 1.0 mg asimadoline tablets b.i.d. for the 12 week treatment period. During screening, treatment and follow-up patients entered data every day on the IVRS.
The primary endpoint was the number of months a patient was a responder for adequate relief, where the primary measure was the question, “In the past 7 days have you had adequate relief of your IBS pain or discomfort?” This measure was asked once every 7 days and a monthly responder replied “yes” at least 3 weeks per month. Numerous secondary endpoints, abdominal pain or discomfort, stool frequency, urgency, bloating, stool consistency, adequate relief of IBS symptoms and straining were also collected. Additionally, adverse clinical events, laboratory test data and electrocardiograms (ECGs) were collected.
Of the 596 subjects who were randomized, 344 reported baseline pain scores of 2.0 or higher. The pain score was a self reported score on a scale of 0-3, where 0=no pain, 1=mild pain, 2=moderate pain and 3=severe pain Subjects having scores of 2.0 or higher were categorized as having moderate or severe pain. Of the 344 moderate or severe pain subjects, 104 were classified as having IBS-D, 114 IBS-A and 126 IBS-C.

[8] = cited from earlier work; remark: listed apart in the source
[9] = molecular target: kappa-opiate receptor (Homo sapiens, UniProt P41145); conditions: read-out: affinity for the kappa-opiate receptor, IC50; cited from earlier work
[10] = tested on: IBS patients; conditions: Bardhan et al., Aliment Pharmacol Ther 2000; 14:23-34; cited from earlier work

Sequence of mu opiate receptor (P35372 whole entry): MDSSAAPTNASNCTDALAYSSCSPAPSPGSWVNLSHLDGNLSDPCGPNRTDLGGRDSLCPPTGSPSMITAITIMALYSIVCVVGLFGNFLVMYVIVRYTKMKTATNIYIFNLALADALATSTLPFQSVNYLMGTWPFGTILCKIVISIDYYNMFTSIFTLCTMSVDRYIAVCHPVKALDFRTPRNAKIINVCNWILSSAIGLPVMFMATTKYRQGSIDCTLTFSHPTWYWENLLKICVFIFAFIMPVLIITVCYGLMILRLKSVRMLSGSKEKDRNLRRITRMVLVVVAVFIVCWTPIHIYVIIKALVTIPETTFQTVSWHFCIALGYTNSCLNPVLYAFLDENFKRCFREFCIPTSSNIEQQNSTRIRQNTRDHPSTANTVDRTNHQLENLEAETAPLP
Sequence of delta opiate receptor (P41143 whole entry): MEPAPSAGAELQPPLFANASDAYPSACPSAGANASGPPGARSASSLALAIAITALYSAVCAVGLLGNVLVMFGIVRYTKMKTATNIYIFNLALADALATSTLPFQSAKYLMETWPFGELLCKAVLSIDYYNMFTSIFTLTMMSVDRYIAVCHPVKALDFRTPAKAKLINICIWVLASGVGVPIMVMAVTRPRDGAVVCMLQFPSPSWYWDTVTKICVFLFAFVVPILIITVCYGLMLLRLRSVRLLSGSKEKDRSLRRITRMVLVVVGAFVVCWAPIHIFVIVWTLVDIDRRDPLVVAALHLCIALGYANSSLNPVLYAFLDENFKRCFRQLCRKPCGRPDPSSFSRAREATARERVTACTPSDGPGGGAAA
Sequence of kappa-opiate receptor (P41145 whole entry): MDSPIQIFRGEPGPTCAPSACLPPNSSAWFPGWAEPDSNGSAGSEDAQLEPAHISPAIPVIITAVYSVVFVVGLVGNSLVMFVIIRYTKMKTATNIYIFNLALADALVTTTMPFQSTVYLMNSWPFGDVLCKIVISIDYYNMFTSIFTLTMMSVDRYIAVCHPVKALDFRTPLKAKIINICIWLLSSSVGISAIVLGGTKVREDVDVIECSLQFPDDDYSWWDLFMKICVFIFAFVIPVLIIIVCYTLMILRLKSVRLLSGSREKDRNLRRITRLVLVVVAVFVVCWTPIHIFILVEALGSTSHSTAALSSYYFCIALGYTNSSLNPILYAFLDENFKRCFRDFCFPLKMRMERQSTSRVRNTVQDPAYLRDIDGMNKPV

CN(C(=O)C(c1ccccc1)c1ccccc1)[C@H](CN1CC[C@H](O)C1)c1ccccc1.Cl [Asimadoline, N-[(1S)-2-[(3S)-3-hydroxypyrrolidin-1-yl]-1-phenylethyl]-N-methyl-2,2-diphenylacetamide, hydrochloride]
ratio of IC50 values, delta relative to kappa (kappa = 1) [1]: ~498 | Proportion of days with adequate relief of symptoms (mean ± SE) ([2]; IBS-A): 0.46 ± 0.08 | change in bowel movements per day, corrected for placebo change from baseline ([2]; IBS-A): increase | delta pain intensity scores relative to placebo ([2]; IBS-A (alternators), p=0.003): significantly better than placebo | Δ Pain intensity (mean ± SE) ([2]; IBS-A, unadjusted p = 0.003 vs placebo): 37.8 ± 3.7 mm | Δ mean # stools, treatment compared to baseline ([2]; IBS-A, on-demand, 4 weeks): 0.0 ± 0.1 | Δ mean ease of passage, treatment compared to baseline ([2]; IBS-A, on-demand, 4 weeks): 0.0 ± 0.1 | Δ mean stool form, treatment compared to baseline ([2]; IBS-A, on-demand, 4 weeks): 0.2 ± 0.2 | Proportion of days with adequate relief of symptoms (mean ± SE) ([2]; IBS-C): 0.11 ± 0.07 | change in bowel movements per day, corrected for placebo change from baseline ([2]; IBS-C): increase | Δ Pain intensity (mean ± SE) ([2]; IBS-C): 23.8 ± 4.0 mm | Δ mean ease of passage, treatment compared to baseline ([2]; IBS-C, on-demand, 4 weeks): −0.1 ± 0.1 | Δ mean stool form, treatment compared to baseline ([2]; IBS-C, on-demand, 4 weeks): 0.0 ± 0.2 | Proportion of days with adequate relief of symptoms (mean ± SE) ([2]; IBS-D): 0.45 ± 0.08 | change in bowel movements per day, corrected for placebo change from baseline ([2]; IBS-D): decrease | Δ Pain intensity (mean ± SE) ([2]; IBS-D): 25.0 ± 2.9 mm | Δ mean # stools, treatment compared to baseline ([2]; IBS-D, on-demand, 4 weeks): −0.3 ± 0.1 | Δ mean ease of passage, treatment compared to baseline ([2]; IBS-D, on-demand, 4 weeks): −0.1 ± 0.1 | Δ mean stool form, treatment compared to baseline ([2]; IBS-D, on-demand, 4 weeks): −0.1 ± 0.2 | Adverse events: Body as a whole ([2]; on-demand, 4 weeks): 15.00% | Adverse events: Central and peripheral nervous system ([2]; on-demand, 4 weeks): 48.33% | Adverse events: Gastrointestinal ([2]; on-demand, 4 weeks): 16.67% | Adverse events: Genitourinary ([2]; on-demand, 4 weeks): 1.67% | Adverse events: Musculoskeletal ([2]; on-demand, 4 weeks): 6.67% | Adverse events: Psychiatric ([2]; on-demand, 4 weeks): 15.00% | Adverse events: Respiratory ([2]; on-demand, 4 weeks): 33.33% | serious clinical or laboratory adverse events ([2]; on-demand, 4 weeks): no serious clinical or laboratory adverse events | tolerability ([2]; on-demand, 4 weeks): well tolerated | sensation responses to gastric and colon distention [3]: reduce sensation responses | ratio of IC50 values, mu relative to kappa (kappa = 1) [4]: ~501 | stability of the substance [5]: slightly sensitive to moisture, but stable against heat, aerial oxygen and light | bioavailability ([6]; fasting subjects): 50% | effect of eating on bioavailability ([6]; food interaction studies): eating does not substantially impact bioavailability | half-life ([6]; in vivo): 2 to 3 h | penetration of the blood-brain barrier ([6]; in vivo): poor penetration of the blood-brain barrier | Adverse events: Abdominal pain ([7]; 0.15 mg b.i.d.): 5.4% | Adverse events: Constipation ([7]; 0.15 mg b.i.d.): 12.8% | Adverse events: Diarrhea ([7]; 0.15 mg b.i.d.): 13.4% | Adverse events: Dizziness ([7]; 0.15 mg b.i.d.): 2.7% | Adverse events: Headache ([7]; 0.15 mg b.i.d.): 9.4% | Adverse events: Nausea ([7]; 0.15 mg b.i.d.): 5.4% | Adverse events: Sinusitis ([7]; 0.15 mg b.i.d.): 4.7% | Adverse events: Abdominal pain ([7]; 0.5 mg b.i.d.): 4.6% | Adverse events: Constipation ([7]; 0.5 mg b.i.d.): 10.5% | Adverse events: Diarrhea ([7]; 0.5 mg b.i.d.): 5.9% | Adverse events: Dizziness ([7]; 0.5 mg b.i.d.): 1.3% | Adverse events: Headache ([7]; 0.5 mg b.i.d.): 4.6% | Adverse events: Nausea ([7]; 0.5 mg b.i.d.): 8.6% | Adverse events: Sinusitis ([7]; 0.5 mg b.i.d.): 2.6% | Adverse events: Abdominal pain ([7]; 1.0 mg b.i.d.): 4.2% | Adverse events: Constipation ([7]; 1.0 mg b.i.d.): 7.6% | Adverse events: Diarrhea ([7]; 1.0 mg b.i.d.): 11.1% | Adverse events: Dizziness ([7]; 1.0 mg b.i.d.): 2.1% | Adverse events: Headache ([7]; 1.0 mg b.i.d.): 5.6% | Adverse events: Nausea ([7]; 1.0 mg b.i.d.): 2.8% | Adverse events: Sinusitis ([7]; 1.0 mg b.i.d.): 6.3% | serious clinical or laboratory adverse events related to the treatment ([7]; 0.15, 0.5 or 1.0 mg b.i.d., 12 weeks): No serious clinical or laboratory adverse events | pain scores ([7]; IBS-A subjects at these dosages): No statistically significant improvement | percent months with adequate relief of IBS pain or discomfort ([7]; IBS-A, moderate or severe pain, 1.0 mg b.i.d., placebo 27%, p=0.022): 50% | proportion of months with adequate relief of overall IBS symptoms ([7]; IBS-A, moderate or severe pain, 1.0 mg b.i.d., placebo 30%, p=0.032): 57% | percentage of monthly responders (adequate relief of pain or discomfort) ([7]; IBS-A, 1.0 mg b.i.d., first month, placebo 19%, p=0.017): 46% | abdominal pain or discomfort associated with IBS ([7]; IBS-C subjects with moderate or severe pain): no statistically significant improvement | stool consistency ([7]; IBS-D and IBS-C subjects, any of the three dosages): no statistically significant changes | bloating ([7]; IBS-D, baseline pain scores ≧2.0, 1.0 mg, second month): statistically significant reductions | percent months with adequate relief of IBS pain or discomfort ([7]; IBS-D, moderate or severe pain, 0.5 mg b.i.d., placebo 20%, p=0.011): 47% | proportion of months with adequate relief of overall IBS symptoms ([7]; IBS-D, moderate or severe pain, 0.5 mg b.i.d., placebo 23%, p=0.038): 47% | urgency ([7]; IBS-D, moderate or severe pain, 0.5 mg): statistically significant reductions | daily stool frequency ([7]; IBS-D, moderate or severe pain, 0.5 mg, from week 3 to end of treatment): dramatic decrease | bloating ([7]; IBS-D, moderate or severe pain, 0.5 mg, second and third months): Significant reductions | proportion of months with adequate relief of overall IBS symptoms ([7]; IBS-D, moderate or severe pain, 1.0 mg b.i.d., placebo 23%, p=0.039): 43% | urgency ([7]; IBS-D, moderate or severe pain, 1.0 mg): statistically significant reductions | improvement in the percentage of pain-free days over placebo ([7]; IBS-D, pain scores ≧2.0, 0.5 mg b.i.d., weeks 1-12): ~30% | results in female versus male IBS-D subjects (adequate relief) ([7]; IBS-D, 0.5 mg): highly similar results | percentage of monthly responders (adequate relief of pain or discomfort) ([7]; IBS-D, 0.5 mg b.i.d., month 1, placebo 20%, p=0.045): 48% | percentage of monthly responders (adequate relief of pain or discomfort) ([7]; IBS-D, 0.5 mg b.i.d., month 2, placebo 18%, p=0.010): 52% | percentage of monthly responders (adequate relief of pain or discomfort) ([7]; IBS-D, 0.5 mg b.i.d., month 3, placebo 27%, p=0.010): 50% | pain scores ([7]; IBS-D, 0.5 mg, every week starting at week 3 and every month): statistically significant improvement | more pain free days compared to placebo ([7]; IBS-D, 0.5 mg, over the 3 month study): 21 days | pain scores ([7]; IBS-D, 1.0 mg, every month and six of the twelve weeks): statistically significant improvement | improvement over placebo in percent number of months with adequate relief ([7]; 0.5 mg b.i.d.): 17% | percent number of months with adequate relief of IBS pain or discomfort ([7]; 0.5 mg b.i.d., placebo 23%, p=0.006): 40% | improvement over placebo in percent number of months with adequate relief ([7]; 1.0 mg b.i.d.): 17% | percent number of months with adequate relief of IBS pain or discomfort ([7]; 1.0 mg b.i.d., placebo 23%, p=0.005): 40% | tolerability ([7]; fixed dose, 12 weeks): well tolerated | solubility in ethanol ([8]; ethanol): 5400 µg/mL | solubility in water ([8]; water): 11600 µg/mL | IC50 [9]: 1.2 nM

Cc1[nH]cnc1CN1CCc2c(c3ccccc3n2C)C1=O [LOTRONEX]
improvement in the percentage of pain-free days [10]: 10%
